Six compounds from the NIST ThermoML archive (doi:10.1021/je900730w) can be followed below.

Molecules are shown by their SMILES. ± gives the expanded uncertainty stated by the source.

Broadly, the mass density is the mass of a sample divided by its volume. Usually refractive index stands for the speed of light in vacuum divided by its phase velocity in the sample.

For data set [1] the following is noted: for mass density: 293.15 K, 101.33 kPa, Liquid.
Data set [2] can be described thus: refractive index (Na D-line) (dimensionless). Conditions: 293.15 K; 101.33 kPa; Liquid; Standard Abbe refractometry.
The nature of data set [3]: Molar enthalpy of transition or fusion. The following applies: Crystal; DSC.

Consider `CCOCCO` [2-ethoxyethan-1-ol], for which, in data set [1] (Vibrating tube method), the mass density is listed as 929 ± 1 kg/m3. Besides, the refractive index in data set [2] worked out at 1.4065 ± 0.0007.
The like results for `CC(C)=O` [acetone] were, in that order, 790 ± 1 kg/m3 and 1.359 ± 0.0007.
With `CCO` [ethanol], the mass density in data set [1] (Vibrating tube method) stood at 790 ± 1 kg/m3. The refractive index in data set [2] amounted to 1.366 ± 0.0007.
As to `Cc1ccccc1` [toluene], in data set [1] (Vibrating tube method), the mass density was 866 ± 1 kg/m3. Moreover, the refractive index in data set [2] worked out at 1.4967 ± 0.0007.
As to `CO` [methanol], the mass density in data set [1] was 792 ± 1 kg/m3. Besides, the refractive index in data set [2] was found to be 1.3301 ± 0.0007.
For `O=P(c1ccccc1)(c1ccccc1)c1cc(O)ccc1O` [(2,5-dihydroxyphenyl)diphenyl phosphine oxide], the Normal melting temperature in data set [1] (Crystal, DTA) was 214.60 ± 0.5 °C. Besides, in data set [3], the “Molar enthalpy of transition or fusion” value amounted to 8.91 ± 0.239 kcal/mol.
